From patent US20240238242A1, “EGCG buccal tablet and use thereof” (priority 2023, published 2024)
Where two headings read alike, the source gives them in different places.

How the values were obtained:
SARS-CoV-2 BJ-01 virus = assay: In vitro effect of EGCG on SARS-CoV-2 BJ-01 infection (co-incubation, then Vero-E6 cells); assay type: cell-based; details: 2.18 mM EGCG co-incubated 1, 2, 4 and 8 minutes at room temperature; Vero-E6, 48 hours
Text: In this experimental example, SARS-CoV-2 BJ-01 virus was provided by the Military Veterinary Research Institute, Academy of Military Medical Sciences, Academy of Military Sciences, and its Accession Number at NCBI was MT291831; Vero-E6 cells were provided by the Military Veterinary Research Institute, Academy of Military Medical Sciences, Academy of Military Sciences; and the culture medium was Dulbecco's Modified Eagle Medium, purchased from Thermo Scientific, catalog number: C11995500BT.
The incubation of drug EGCG with SARS-CoV-2 BJ-01 virus in the culture medium was designed according to the time gradient, in which the incubation time was: 1 minute, 2 minutes, 4 minutes, 8 minutes, the EGCG concentration in the incubation system was 1 mg/mL (2.18 mM), and the virus titer in the incubation system was 10^7 TCID50. After incubation, the incubation system was diluted 10 times and used to infect Vero-E6 cells. After 48 hours, the Ct value of the cell supernatant was detected.

[1] = tested on: Influenza A H3N2 virus (H3N2); assay type: cell-based

O=C(O[C@@H]1Cc2c(O)cc(O)cc2O[C@@H]1c1cc(O)c(O)c(O)c1)c1cc(O)c(O)c(O)c1 [EGCG, Epigallocatechin gallate]
76.27%: average inactivation efficiency against virus ([1]; 0.2 mM EGCG, H3N2 virus, 5 minutes, two experiments)
+: CPE test, virus replication in cell wells (wells 1-10) ([1]; 0.2 mM EGCG + H3N2 virus, 1 minute, first experiment, dilution factor 10^1) | CPE test, virus replication in cell wells (wells 1-10) ([1]; 0.2 mM EGCG + H3N2 virus, 1 minute, first experiment, dilution factor 10^2) | CPE test, virus replication in cell wells (wells 1-10) ([1]; 0.2 mM EGCG + H3N2 virus, 1 minute, first experiment, dilution factor 10^3) | CPE test, virus replication in cell wells (wells 1-10) ([1]; 0.2 mM EGCG + H3N2 virus, 1 minute, first experiment, dilution factor 10^4) | CPE test, virus replication in cell wells (wells 1-10) ([1]; 0.2 mM EGCG + H3N2 virus, 1 minute, second experiment, dilution factor 10^1) | CPE test, virus replication in cell wells (wells 1-10) ([1]; 0.2 mM EGCG + H3N2 virus, 1 minute, second experiment, dilution factor 10^2) | CPE test, virus replication in cell wells (wells 1-10) ([1]; 0.2 mM EGCG + H3N2 virus, 1 minute, second experiment, dilution factor 10^3) | CPE test, virus replication in cell wells (wells 1-10) ([1]; 0.2 mM EGCG + H3N2 virus, 1 minute, second experiment, dilution factor 10^4) | CPE test, virus replication in cell wells 1-10 ([1]; 0.2 mM EGCG + H3N2 virus, 1 minute, third experiment, dilution factor 10^1) | CPE test, virus replication in cell wells 1-10 ([1]; 0.2 mM EGCG + H3N2 virus, 1 minute, third experiment, dilution factor 10^2) | CPE test, virus replication in cell wells 1-10 ([1]; 0.2 mM EGCG + H3N2 virus, 1 minute, third experiment, dilution factor 10^3) | CPE test, virus replication in cell wells 1-10 ([1]; 0.2 mM EGCG + H3N2 virus, 1 minute, third experiment, dilution factor 10^4) | CPE test, virus replication in cell wells 1-10 ([1]; 0.2 mM EGCG + H3N2 virus, 5 minute, first experiment, dilution factor 10^1) | CPE test, virus replication in cell wells 1-10 ([1]; 0.2 mM EGCG + H3N2 virus, 5 minute, first experiment, dilution factor 10^2) | CPE test, virus replication in cell wells 1-10 ([1]; 0.2 mM EGCG + H3N2 virus, 5 minute, first experiment, dilution factor 10^3) | CPE test, virus replication in cell wells 1-10 ([1]; 0.2 mM EGCG + H3N2 virus, 5 minute, first experiment, dilution factor 10^4) | CPE test, virus replication in cell wells 1-10 ([1]; 0.2 mM EGCG + H3N2 virus, 5 minute, second experiment, dilution factor 10^1) | CPE test, virus replication in cell wells 1-10 ([1]; 0.2 mM EGCG + H3N2 virus, 5 minute, second experiment, dilution factor 10^2) | CPE test, virus replication in cell wells 1-10 ([1]; 0.2 mM EGCG + H3N2 virus, 5 minute, second experiment, dilution factor 10^3) | CPE test, virus replication in cell wells 1-10 ([1]; 0.2 mM EGCG + H3N2 virus, 5 minute, second experiment, dilution factor 10^4) | CPE test, virus replication in cell wells (wells 1-10) ([1]; 1 mM EGCG + H3N2 virus, 1 minute, first experiment, dilution factor 10^2) | CPE test, virus replication in cell wells (wells 1-10) ([1]; 1 mM EGCG + H3N2 virus, 1 minute, first experiment, dilution factor 10^3) | CPE test, virus replication in cell wells (wells 1-10) ([1]; 1 mM EGCG + H3N2 virus, 1 minute, first experiment, dilution factor 10^4) | CPE test, virus replication in cell wells (wells 1-10) ([1]; 1 mM EGCG + H3N2 virus, 1 minute, second experiment, dilution factor 10^1) | CPE test, virus replication in cell wells (wells 1-10) ([1]; 1 mM EGCG + H3N2 virus, 1 minute, second experiment, dilution factor 10^2) | CPE test, virus replication in cell wells (wells 1-10) ([1]; 1 mM EGCG + H3N2 virus, 1 minute, second experiment, dilution factor 10^3) | CPE test, virus replication in cell wells 1-10 ([1]; 1 mM EGCG + H3N2 virus, 1 minute, third experiment, dilution factor 10^2) | CPE test, virus replication in cell wells 1-10 ([1]; 1 mM EGCG + H3N2 virus, 1 minute, third experiment, dilution factor 10^3)
−: CPE test, virus replication in cell wells (wells 1-10) ([1]; 0.2 mM EGCG + H3N2 virus, 1 minute, first experiment, dilution factor 10^6) | CPE test, virus replication in cell wells (wells 1-10) ([1]; 0.2 mM EGCG + H3N2 virus, 1 minute, first experiment, dilution factor 10^7) | CPE test, virus replication in cell wells (wells 1-10) ([1]; 0.2 mM EGCG + H3N2 virus, 1 minute, first experiment, dilution factor 10^8) | CPE test, virus replication in cell wells (wells 1-10) ([1]; 0.2 mM EGCG + H3N2 virus, 1 minute, second experiment, dilution factor 10^6) | CPE test, virus replication in cell wells (wells 1-10) ([1]; 0.2 mM EGCG + H3N2 virus, 1 minute, second experiment, dilution factor 10^7) | CPE test, virus replication in cell wells (wells 1-10) ([1]; 0.2 mM EGCG + H3N2 virus, 1 minute, second experiment, dilution factor 10^8) | CPE test, virus replication in cell wells 1-10 ([1]; 0.2 mM EGCG + H3N2 virus, 1 minute, third experiment, dilution factor 10^6) | CPE test, virus replication in cell wells 1-10 ([1]; 0.2 mM EGCG + H3N2 virus, 1 minute, third experiment, dilution factor 10^7) | CPE test, virus replication in cell wells 1-10 ([1]; 0.2 mM EGCG + H3N2 virus, 1 minute, third experiment, dilution factor 10^8) | CPE test, virus replication in cell wells 1-10 ([1]; 0.2 mM EGCG + H3N2 virus, 5 minute, first experiment, dilution factor 10^6) | CPE test, virus replication in cell wells 1-10 ([1]; 0.2 mM EGCG + H3N2 virus, 5 minute, first experiment, dilution factor 10^7) | CPE test, virus replication in cell wells 1-10 ([1]; 0.2 mM EGCG + H3N2 virus, 5 minute, first experiment, dilution factor 10^8) | CPE test, virus replication in cell wells 1-10 ([1]; 0.2 mM EGCG + H3N2 virus, 5 minute, second experiment, dilution factor 10^6) | CPE test, virus replication in cell wells 1-10 ([1]; 0.2 mM EGCG + H3N2 virus, 5 minute, second experiment, dilution factor 10^7) | CPE test, virus replication in cell wells 1-10 ([1]; 0.2 mM EGCG + H3N2 virus, 5 minute, second experiment, dilution factor 10^8) | CPE test, virus replication in cell wells (wells 1-10) ([1]; 1 mM EGCG + H3N2 virus, 1 minute, first experiment, dilution factor 10^6) | CPE test, virus replication in cell wells (wells 1-10) ([1]; 1 mM EGCG + H3N2 virus, 1 minute, first experiment, dilution factor 10^7) | CPE test, virus replication in cell wells (wells 1-10) ([1]; 1 mM EGCG + H3N2 virus, 1 minute, first experiment, dilution factor 10^8) | CPE test, virus replication in cell wells (wells 1-10) ([1]; 1 mM EGCG + H3N2 virus, 1 minute, second experiment, dilution factor 10^6) | CPE test, virus replication in cell wells (wells 1-10) ([1]; 1 mM EGCG + H3N2 virus, 1 minute, second experiment, dilution factor 10^7) | CPE test, virus replication in cell wells (wells 1-10) ([1]; 1 mM EGCG + H3N2 virus, 1 minute, second experiment, dilution factor 10^8)
28.93%: average inactivation efficiency against virus ([1]; 0.2 mM EGCG, H3N2 virus, 1 minute, three experiments)
84.15%: inactivation efficiency against the virus ([1]; 0.2 mM EGCG, H3N2 virus, 5 minutes, single experiment)
+ and −: CPE test, virus replication in cell wells (wells 1-10) ([1]; 0.2 mM EGCG + H3N2 virus, 1 minute, first experiment, dilution factor 10^5) | CPE test, virus replication in cell wells (wells 1-10) ([1]; 0.2 mM EGCG + H3N2 virus, 1 minute, second experiment, dilution factor 10^5) | CPE test, virus replication in cell wells 1-10 ([1]; 0.2 mM EGCG + H3N2 virus, 1 minute, third experiment, dilution factor 10^5) | CPE test, virus replication in cell wells 1-10 ([1]; 0.2 mM EGCG + H3N2 virus, 5 minute, first experiment, dilution factor 10^5) | CPE test, virus replication in cell wells (wells 1-10) ([1]; 1 mM EGCG + H3N2 virus, 1 minute, first experiment, dilution factor 10^5) | CPE test, virus replication in cell wells (wells 1-10) ([1]; 1 mM EGCG + H3N2 virus, 1 minute, second experiment, dilution factor 10^4) | CPE test, virus replication in cell wells (wells 1-10) ([1]; 1 mM EGCG + H3N2 virus, 1 minute, second experiment, dilution factor 10^5)
− and +: CPE test, virus replication in cell wells 1-10 ([1]; 0.2 mM EGCG + H3N2 virus, 5 minute, second experiment, dilution factor 10^5)
significantly reduced: number of live viruses (virus copy number in cell supernatant) (SARS-CoV-2 BJ-01 virus)
10^5 TCID50/50 μL: residual virus titer of EGCG+virus group (Karber method) ([1]; 0.2 mM EGCG, H3N2 virus, 1 minute)
